According to patent publication US20050169912A1, “Immunogenic peptides and uses thereof” (priority 2001, published 2005):

Tested on: antibody in sera from Helicobacter pylori infected patients and healthy control subjects
Experiment: Immunoassay detecting serum antibodies specific for individual peptide antigens
Type: binding, human
Settings: for ability of peptide to identify Helicobacter pylori infected individuals: 30 infected patients vs 30 healthy controls, threshold control mean plus 2.5 standard deviations; for functional specificity for the H. pylori protein: candidate sequences tested, FIGS. 4 and 5
Text: 1. Possible Outcomes for Peptides Screened as Antigens in Serum Antibody Assays:
1. A positive result indicating the presence of a peptide-specific antibody in patient biological fluid samples, absent evidence of antibody in samples from subjects without the microorganism or autoimmune disease (FIG. 3) indicates the tested peptide is a specific peptide (immunogen) for a targeted protein.
3. No difference in positive antibody levels between patients and subjects without disease.
2. Immunoassay Method 1: Used to Detect Serum IgA, IgD, IgE, IgG, and IgM Antibodies Specific for Individual Peptide Antigens
Peptide solution: 0.06 μg/mL peptide dissolved in 20 mM Tris chloride, pH 7.4, containing 600 mM sodium chloride, 30 mg/mL polyethylene glycol 4000, 1 mm ethylenediaminetetraacetic acid, 1 mM ethylene glycol-bis(§-aminoethyl ether)N,N,N′,N′-tetraacetic acid, 0.5 mg/mL triton x-405 and 0.2 mg/mL thimerosal.
Control peptide solution: 0.013 μg/mL control peptide dissolved in 20 mM Tris chloride, pH 7.4, containing 600 mM sodium chloride, 30 mg/mL polyethylene glycol 4000, 1 mm ethylenediaminetetraacetic acid, 1 mM ethylene glycol-bis(§-aminoethyl ether)N,N,N′,N′-tetraacetic acid, 0.5 mg/mL triton x-405 and 0.2 mg/mL thimerosal.
Conjugate solution: 0.100 μg/mL alkaline phosphatase conjugated polyclonal goat anti human IgG dissolved in 20 mM Tris-HCL, pH 7.40, with 600 mM sodium chloride, 30.0 mg/mL peg-4000, 3.0 mg/mL BSA, 0.5 mg/mL triton x-405 and 0.20 mg/mL thimerosal.
Substrate solution: 25.2 μg/mL 4-methylumbelliferyl phosphate dissolved in 180 mM 2-amino-2-methyl-1-propanol, pH 9.50, containing 123 μM magnesium chloride.
Serum preparation: • 1. Add 100 μl serum to 15 neutravidin^a coated paper discs in a suitably sized test tube. • 2. Incubate with gentle mixing at ambient temperature for 16-20 hours. • 3. Add 7.9 mL of serum diluent and mix gently for 30 minutes. • 4. Vortex the tube gently to completely release the serum from the discs. • 5. Remove the treated serum from the discs and transfer it to a suitable storage tube. • 6. Store the treated serum at 4 EC.
Assay procedure: • 1. Two days before assay, aspirate the storage solution from the NeutrAvidin^a coated white microtiter plate and add 200 μl plate blocking solution to each well. • 2. Cover the plate and incubate at ambient temperature for 16-20 hours. • 3. One day before assay. Wash the blocked plate three times with plate wash buffer, approximately 275 μl per well per wash. Aspirate the final wash and add 100 μl peptide solution or 100 μl control peptide solution to the appropriate wells of the plate. • 4. Cover the plate and incubate with gentle mixing at ambient temperature for 16-20 hours. • 5. Day of assay, wash the blocked plate three times with plate wash buffer, approximately 275 μl per well per wash. Aspirate the final wash and add 100 μl treated serum to the appropriate wells of the plate. • 6. Cover the plate and incubate at 25 EC for 2 hours. • 7. Wash the blocked plate six times with plate wash buffer, approximately 275 μl per well per wash. Aspirate the final wash and add 100 μl conjugate solution to each assay well. • 8. Cover the plate and incubate at 25 EC for 1.5 hours. • 9. Wash the blocked plate six times with plate wash buffer, approximately 275 μl per well per wash. Aspirate the final wash and add 100 μl substrate solution to each assay well. • 10. Read the plate at 30 and 60 minutes in a fluorescence microtiter plate reader set at 365 nm excitation and 450 nm emission. 3. Biotinylation of Human Serum Albumin

| Sequence | ability of peptide to identify Helicobacter pylori infected individuals | functional specificity for the H. pylori protein | detection of fluids from infected persons (Example 1, FIGS. 3-5) | Helicobacter pylori infected individuals identified by the peptide (sera from 30 H. pylori infected patients, positive/negative threshold control mean) | control sera identified as positive for the peptide (sera from 30 healthy control subjects, antibodies to the peptide) |
| --- | --- | --- | --- | --- | --- |
| QKDAKECKGKRN | does not serve to identify Helicobacter pylori infected individuals | – | – | – | – |
| QKDAKELKGKRN | does not serve to identify Helicobacter pylori infected individuals | not functionally specific | – | – | – |
| MQEIDKKLTQKN | – | – | detected fluids from infected persons | three | no control sera were incorrectly identified as positive |
| KNLESYQKDA | – | not functionally specific | – | – | – |
